This passage reports IC50 results from article PMC4666032, “KPT-330, a potent and selective exportin-1 (XPO-1) inhibitor, shows antitumor effects modulating the expression of cyclin D1 and survivin in prostate cancer models” (BMC Cancer, 2015).

The structures appear in SMILES notation.

Assay type in all cases: cell-based
In one experiment the test system is PCa cell lines. Briefly: Growth inhibition across the PCa cell panel. The following applies: Homo sapiens; 72 hours, range across the cell panel; read-out: IC50 values, range over PCa cell lines. From the text: Four commercial (LnCaP, 22rv1, DU145 and PC3) and twelve non-commercial (LAPC-4 [44], CWR22, PCb2 [45], PC3Lymphnode, PC3M, PC3M-pro4 [46] and PC3M-Ln4 [47], LnCaP-104S [47], LnCaP104R1 [47], LnCaP-C81 [47], C4-2B [48], VCAP [49] and DuCaP [[49]) cell lines were selected for the in vitro experimental studies for their biological characteristics: LAPC-4 (Androgen receptor [AR] positive, androgen dependent with low Akt/mTOR activities, p53 wt); LnCaP (AR positive, androgen dependent with high Akt/mTOR activities, p53 wt); LnCaP-C81 and LnCaP-C4-2B (AR positive, androgen independent with high Akt/mTOR activities, p53 wt); 22rv1 (AR positive, androgen independent with low Akt/mTOR activities, p53 wt); PC3 (AR negative, with high Akt/mTOR activities and no p53 function (p53 del) and DU145 (AR negative, with low Akt/mTOR activities and mutant p53). PC3 and DU145 have been also transfected with AR to obtain PC3AR [50] and DU-AR [51]. Benign prostatic hyperplasia line (BPH1), and Prostatic epithelial lines (EPN and RWPE-1) were used as non-neoplastic controls. Cells were routinely cultured in appropriate medium supplemented with 10 % fetal bovine serum (FBS), 1 % pen-strep and 1 % L-glutamine (Invitrogen Corporation, Carlsbad, CA). To minimize the risk to work with misidentified and/or contaminated cell lines, DNA profiling was periodically carried out in-house to authenticate cell cultures. DNA was isolated from cell lines using a standard DNA isolation kit. […]
Cells were seeded at a density of 2 x 10^4 cells/mL in 24-well plates. […] Cells were trypsinized and resuspended in 1.0 ml of saline, then counted using a NucleoCounter™ NC-100 (automated cell counter systems, Chemotec, Gydevang, Denmark). The effect on cell proliferation was measured by taking the mean cell number with respect to controls over time for the different treatment groups.
Viable cells were counted by using the NucleoCounter™ NC-100 (automated cell counter systems, Chemotec, Cydevang, DK). Apoptosis was evaluated by using Tali® Apoptosis Kit - Annexin V Alexa Fluor® 488 & Propidium Iodide-based, (Life Technologies Italia, Monza, Italy). Stained cells were then measured on a Tali® Image-Based Cytometer. […]
(§1) Six SINE analogs KPT-127, KPT-185, KPT-205, KPT-227, KPT251 and KPT-330 sharing a trifluoromethyl phenyl triazole scaffold, were investigated for their growth inhibitory and apoptotic potential in our PCa cell panel. Therefore, the effects of these XPO1 inhibitors were evaluated on the growth of PCa cell lines performing dose- and time-dependent studies. To examine the dose-dependent effects of these compounds, we treated cells with varying doses of the compounds (0, 1, 10, 50, 100, 500 and 1000 nM) and assessed viability at 72 hours after treatment. The IC50 for each compound was then calculated. […]

A further experiment relates to PCb2. As to the kind of experiment: Growth/viability assay, IC50 at 72 h. Conditions: Homo sapiens; PCb2, Fig. 2g.
Excerpt: (§2) Four commercial (LnCaP, 22rv1, DU145 and PC3) and twelve non-commercial (LAPC-4 [44], CWR22, PCb2 [45], PC3Lymphnode, PC3M, PC3M-pro4 [46] and PC3M-Ln4 [47], LnCaP-104S [47], LnCaP104R1 [47], LnCaP-C81 [47], C4-2B [48], VCAP [49] and DuCaP [[49]) cell lines were selected for the in vitro experimental studies for their biological characteristics: LAPC-4 (Androgen receptor [AR] positive, androgen dependent with low Akt/mTOR activities, p53 wt); LnCaP (AR positive, androgen dependent with high Akt/mTOR activities, p53 wt); LnCaP-C81 and LnCaP-C4-2B (AR positive, androgen independent with high Akt/mTOR activities, p53 wt); 22rv1 (AR positive, androgen independent with low Akt/mTOR activities, p53 wt); PC3 (AR negative, with high Akt/mTOR activities and no p53 function (p53 del) and DU145 (AR negative, with low Akt/mTOR activities and mutant p53). PC3 and DU145 have been also transfected with AR to obtain PC3AR [50] and DU-AR [51]. Benign prostatic hyperplasia line (BPH1), and Prostatic epithelial lines (EPN and RWPE-1) were used as non-neoplastic controls. Cells were routinely cultured in appropriate medium supplemented with 10 % fetal bovine serum (FBS), 1 % pen-strep and 1 % L-glutamine (Invitrogen Corporation, Carlsbad, CA). To minimize the risk to work with misidentified and/or contaminated cell lines, DNA profiling was periodically carried out in-house to authenticate cell cultures. DNA was isolated from cell lines using a standard DNA isolation kit. STR profiling was performed by using GenePrint® 10 System (Promega Corporation, Madison, WI). An eight-capillary 3500 Genetic Analyzer (Applied Biosystems Life Technologies Europe BV, Monza, Italy) was used to separate and identify alleles using standard procedures. GenePrint® 10 System allows co-amplification and detection of […] human loci required by the guidelines ASN-0002. For non-commercial cell lines, the authentication process was carried out by comparing STR-fingerprints with those published by Adri van Bokhoven and co-workers. In addition, cell lines were stocked at very low passages and used at <15-20 subcultures.
(§3) Cells were seeded at a density of 2 x 10^4 cells/mL in 24-well plates. Cells were left to attach and grow in 5 % FCS DMEM for 24 h. After this time, cells were maintained in the appropriate culture conditions. Morphological controls were performed every day with an inverted phase-contrast photomicroscope (Nikon Diaphot, Tokyo, Japan) before cell trypsinization and counting. Cells were trypsinized and resuspended in 1.0 ml of saline, then counted using a NucleoCounter™ NC-100 (automated cell counter systems, Chemotec, Gydevang, Denmark). The effect on cell proliferation was measured by taking the mean cell number with respect to controls over time for the different treatment groups.
(§4) Viable cells were counted by using the NucleoCounter™ NC-100 (automated cell counter systems, Chemotec, Cydevang, DK). Apoptosis was evaluated by using Tali® Apoptosis Kit - Annexin V Alexa Fluor® 488 & Propidium Iodide-based, (Life Technologies Italia, Monza, Italy). Stained cells were then measured on a Tali® Image-Based Cytometer. Apoptosis was further confirmed by FACS analysis following the instructions of the manufacturer.
as §1

The test system of another experiment is PC3M-pro4. Briefly: Growth/viability assay, IC50 at 72 h. Conditions: Homo sapiens; PC3M-pro4, Fig. 2g.
Excerpt: as §2, §3, §4, §1

For another experiment, the system named is C4-2B. Briefly: Growth/viability assay, IC50 at 72 h. Conditions: Homo sapiens, Fig. 2g.
Excerpt: as §2, §3, §4, §1

The test system of the next experiment is CWR22. As to the kind of experiment: Growth/viability assay, IC50 at 72 h. The following applies: Homo sapiens; CWR22, Fig. 2g.
Excerpt: as §2, §3, §4, §1

In a further experiment the test system is 22rv1. Briefly: Growth/viability assay, IC50 at 72 h. The following applies: Homo sapiens.
Excerpt: as §2, §3, §4, §1

For a further experiment, the system named is DU145. Briefly: Growth/viability assay, IC50 at 72 h. The following applies: Homo sapiens, DU-145; DU145, Fig. 2g.
Excerpt: as §2, §3, §4, §1

Another experiment has as its system LnCaP104R1. As to the kind of experiment: Growth/viability assay, IC50 at 72 h. The following applies: Homo sapiens; 104R1, Fig. 2g.
Excerpt: as §2, §3, §4, §1

For another experiment, the system named is RWPE-1. As to the kind of experiment: Growth/viability assay, IC50 at 72 h. The following applies: Homo sapiens; RWPE-1, Fig. 2g.
Excerpt: as §2, §3, §4, §1

The subject of the next experiment is PC3M-Ln4. As to the kind of experiment: Growth/viability assay, IC50 at 72 h. The following applies: Homo sapiens; PC3M-Ln4, Fig. 2g.
Excerpt: as §2, §3, §4, §1

In another experiment the test system is DuCaP. As to the kind of experiment: Growth/viability assay, IC50 at 72 h. The following applies: Homo sapiens, Fig. 2g.
Excerpt: as §2, §3, §4, §1

The next experiment relates to BPH-1. Briefly: Growth/viability assay, IC50 at 72 h. Conditions: Homo sapiens.
Excerpt: as §2, §3, §4, §1

For a further experiment, the system named is PC3. As to the kind of experiment: Growth/viability assay, IC50 at 72 h. The following applies: Homo sapiens, PC-3.
Excerpt: as §2, §3, §4, §1

The subject of a further experiment is DU-AR. As to the kind of experiment: Growth/viability assay, IC50 at 72 h. Conditions: Homo sapiens, Fig. 2g.
Excerpt: as §2, §3, §4, §1

The test system of another experiment is EPN. Briefly: Growth/viability assay, IC50 at 72 h. The following applies: Homo sapiens, Fig. 2g.
Excerpt: as §2, §3, §4, §1

For another experiment, the system named is LAPC-4. Briefly: Growth/viability assay, IC50 at 72 h. The following applies: Homo sapiens.
Excerpt: as §2, §3, §4, §1

The subject of the next experiment is LnCaP-C81. Briefly: Growth/viability assay, IC50 at 72 h. Conditions: Homo sapiens; C-81, Fig. 2g.
Excerpt: as §2, §3, §4, §1

The next experiment has as its system LnCaP. As to the kind of experiment: Growth/viability assay, IC50 at 72 h. Conditions: Homo sapiens.
Excerpt: as §2, §3, §4, §1

For a further experiment, the system named is PC3AR. Briefly: Growth/viability assay, IC50 at 72 h. The following applies: Homo sapiens, PC3/AR, Fig. 2g.
Excerpt: as §2, §3, §4, §1

For a further experiment, the system named is VCaP. As to the kind of experiment: Growth/viability assay, IC50 at 72 h. Conditions: Homo sapiens, Fig. 2g.
Excerpt: as §2, §3, §4, §1

The test system of a further experiment is LnCaP-104S. Briefly: Growth/viability assay, IC50 at 72 h. Conditions: Homo sapiens, Fig. 2g.
Excerpt: as §2, §3, §4, §1

The term IC50 denotes the concentration at which inhibition is half-maximal. Take `O=C(/C=C\n1cnc(-c2cc(C(F)(F)F)cc(C(F)(F)F)c2)n1)NNc1cnccn1` [KPT-330]: the IC50 is 43 to 201 nM with PCa cell lines; 114 nM with PCb2; 118 nM with PC3M-pro4; 66 nM in the experiment on C4-2B; 160 nM in the experiment with CWR22; 102 nM in the experiment on 22rv1 (22rv1, Fig. 2g). The 50% inhibitory concentration (IC50) in the experiment with DU145 is 105 nM; in the experiment with LnCaP104R1, 83 nM; in the experiment with RWPE-1 it was 1000 nM; in the experiment on PC3M-Ln4, 90 nM; in the experiment on DuCaP, 160 nM; with BPH-1 (BPH-1, BPH1, Fig. 2g), over 1000 nM. The half-maximal inhibitory concentration (IC50) in the experiment with BPH-1 (BPH-1, 72 hours, Fig. 2a-f) is over 1000 nM; with PC3 (PC3, Fig. 2g) it was 103 nM; in the experiment on DU-AR, 124 nM; in the experiment with EPN, 800 nM; in the experiment with LAPC-4 (LAPC4, LAPC-4, Fig. 2g) it was 365 nM; in the experiment with LnCaP-C81, 80 nM. Further, the IC50 with LnCaP (Fig. 2g) is 171 nM; with PC3AR it was 122 nM; in the experiment on VCaP, 120 nM; with LnCaP-104S, 130 nM.

On to `FC(F)(F)c1cc(-c2ncn(/C=C\c3nnco3)n2)cc(C(F)(F)F)c1` [KPT-251], for which the IC50 in the experiment on PCa cell lines is 150 to 300 nM; with PCb2 it was 320 nM; with PC3M-pro4, 355 nM; in the experiment on C4-2B, 200 nM; in the experiment with CWR22, 480 nM; in the experiment on 22rv1 (22rv1, 72 hours, Fig. 2a-f), 361 ± 59 nM. In addition, the IC50 in the experiment with 22rv1 (22rv1, Fig. 2g) amounted to 361 nM; with DU145, 360 nM; in the experiment on LnCaP104R1 it was 270 nM; in the experiment on RWPE-1, 1000 nM; in the experiment with PC3M-Ln4, 210 nM; with DuCaP, 210 nM. The half-inhibitory concentration (IC50) in the experiment on BPH-1 (BPH-1, BPH1, Fig. 2g) was over 1000 nM; in the experiment with BPH-1 (BPH-1, 72 hours, Fig. 2a-f) it was over 1000 nM; in the experiment with PC3 (PC3, 72 hours, Fig. 2a-f), 380 ± 39 nM; with PC3 (PC3, Fig. 2g) it was 300 nM; in the experiment on DU-AR it was 300 nM; in the experiment on EPN, 1000 nM. Further, the IC50 in the experiment with LAPC-4 (LAPC4, LAPC-4, Fig. 2g) was 628 nM; in the experiment on LAPC-4 (LAPC4, 72 hours, Fig. 2a-f) it was 628 ± 123 nM; in the experiment on LnCaP-C81 it was 240 nM; in the experiment with LnCaP (72 hours, Fig. 2a-f), 257 ± 82 nM; in the experiment with LnCaP (Fig. 2g), 257 nM; with PC3AR, 260 nM. Besides, the results for the concentration for half-maximal inhibition (IC50) in the experiment with VCaP and in the experiment on LnCaP-104S were 440 nM and 200 nM, respectively.
